Values of other authors, collected in US6991777B2, “Methods for in vivo evaluation of physiological conditions and/or organ or system function including methods to evaluate cardiopulmonary disorders such as chronic heart failure using polarized 129 Xe” (Medi-Physics, Inc., priority 2001, dated 2006).

Tests used:
[1] = dogs, whole lung
[2] = after inhalation into the lungs

Q: For [Xe] [polarized ^129Xe, Xenon-129], which “time constant τ (uptake and/or dissolved gas-exchange transit time), blood compartment” value ([1]; blood compartment) is on record?
A: Its value is ~70 ms.

Q: And the “time constant τ (uptake and/or dissolved gas-exchange transit time), tissue compartment” value ([1]; tissue compartment)?
A: Its value is “about 61 ms”.

Q: And the “diffusion constant of xenon in water” value?
A: The value was “about 2×10^−5 cm^2/s”.

Q: And the “fraction of inhaled gas that transits into the pulmonary blood” value [2]?
A: The value was “roughly 0.3 % per/second”.

Q: What about the “time until Xe begins to dissolve into the pulmonary blood stream” value [2] of the same compound?
A: Its value is “under 100 ms”.
